Laboratory results: ChEMBL document CHEMBL4842364 (J Med Chem, 2021)
In brackets after ≈: the same amount, converted by molar mass.

Tests used:
[1] = Permeability of the compound across apical to basolateral side in human Caco-2 cells; format: ADME, cell-based; conditions: read-out: permeability
[2] = test system: Epidermal growth factor receptor (Homo sapiens), P00533 [UNDEFINED MUTATION]; assay: Inhibition of EGFR d747-749/A750P mutant (unknown origin) at 1 uM relative to control
[3] = biological target: T1, Serine/threonine-protein kinase Nek1 (Homo sapiens) (UniProt Q96PY6); assay: Inhibition of NEK1 (unknown origin) at 1 uM relative to control
T1 sequence (whole entry): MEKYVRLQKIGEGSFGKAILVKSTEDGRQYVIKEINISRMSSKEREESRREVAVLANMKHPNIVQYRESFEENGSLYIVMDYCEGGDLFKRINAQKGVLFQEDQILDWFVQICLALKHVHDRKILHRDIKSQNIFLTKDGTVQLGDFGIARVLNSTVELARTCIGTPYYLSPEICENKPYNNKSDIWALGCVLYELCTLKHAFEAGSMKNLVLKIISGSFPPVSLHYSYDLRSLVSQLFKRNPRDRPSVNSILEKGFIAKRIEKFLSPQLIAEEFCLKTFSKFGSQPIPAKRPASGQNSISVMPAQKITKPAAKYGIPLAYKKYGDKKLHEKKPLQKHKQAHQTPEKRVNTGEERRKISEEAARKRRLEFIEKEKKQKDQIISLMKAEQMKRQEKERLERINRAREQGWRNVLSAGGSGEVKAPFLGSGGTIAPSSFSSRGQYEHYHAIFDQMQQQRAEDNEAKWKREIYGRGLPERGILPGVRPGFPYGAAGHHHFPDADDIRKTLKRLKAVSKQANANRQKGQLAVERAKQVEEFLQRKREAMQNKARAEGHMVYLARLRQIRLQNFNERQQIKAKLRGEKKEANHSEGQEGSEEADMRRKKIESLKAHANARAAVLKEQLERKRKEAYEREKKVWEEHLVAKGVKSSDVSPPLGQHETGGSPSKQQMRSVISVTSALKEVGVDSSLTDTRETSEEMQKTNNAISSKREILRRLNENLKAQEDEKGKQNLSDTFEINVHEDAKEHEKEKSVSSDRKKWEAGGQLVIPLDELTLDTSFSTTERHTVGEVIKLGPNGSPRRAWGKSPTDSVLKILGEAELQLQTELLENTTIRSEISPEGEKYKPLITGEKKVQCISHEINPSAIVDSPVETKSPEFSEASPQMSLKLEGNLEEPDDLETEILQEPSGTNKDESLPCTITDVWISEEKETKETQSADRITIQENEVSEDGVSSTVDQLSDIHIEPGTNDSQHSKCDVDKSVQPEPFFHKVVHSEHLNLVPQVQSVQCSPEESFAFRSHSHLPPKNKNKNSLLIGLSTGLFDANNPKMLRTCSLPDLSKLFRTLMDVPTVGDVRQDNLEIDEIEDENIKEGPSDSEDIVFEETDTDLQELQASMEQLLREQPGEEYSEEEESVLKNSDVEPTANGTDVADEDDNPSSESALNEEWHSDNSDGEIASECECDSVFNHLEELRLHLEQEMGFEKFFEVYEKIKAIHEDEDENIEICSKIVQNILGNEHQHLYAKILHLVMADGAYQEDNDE

[4] = Thermodynamic solubility of compound; format: physicochemical; conditions: read-out: Therm_solubility

Sequence of Epidermal growth factor receptor (Homo sapiens), P00533 [UNDEFINED MUTATION] (P00533 whole entry, looked up, stated change not applied): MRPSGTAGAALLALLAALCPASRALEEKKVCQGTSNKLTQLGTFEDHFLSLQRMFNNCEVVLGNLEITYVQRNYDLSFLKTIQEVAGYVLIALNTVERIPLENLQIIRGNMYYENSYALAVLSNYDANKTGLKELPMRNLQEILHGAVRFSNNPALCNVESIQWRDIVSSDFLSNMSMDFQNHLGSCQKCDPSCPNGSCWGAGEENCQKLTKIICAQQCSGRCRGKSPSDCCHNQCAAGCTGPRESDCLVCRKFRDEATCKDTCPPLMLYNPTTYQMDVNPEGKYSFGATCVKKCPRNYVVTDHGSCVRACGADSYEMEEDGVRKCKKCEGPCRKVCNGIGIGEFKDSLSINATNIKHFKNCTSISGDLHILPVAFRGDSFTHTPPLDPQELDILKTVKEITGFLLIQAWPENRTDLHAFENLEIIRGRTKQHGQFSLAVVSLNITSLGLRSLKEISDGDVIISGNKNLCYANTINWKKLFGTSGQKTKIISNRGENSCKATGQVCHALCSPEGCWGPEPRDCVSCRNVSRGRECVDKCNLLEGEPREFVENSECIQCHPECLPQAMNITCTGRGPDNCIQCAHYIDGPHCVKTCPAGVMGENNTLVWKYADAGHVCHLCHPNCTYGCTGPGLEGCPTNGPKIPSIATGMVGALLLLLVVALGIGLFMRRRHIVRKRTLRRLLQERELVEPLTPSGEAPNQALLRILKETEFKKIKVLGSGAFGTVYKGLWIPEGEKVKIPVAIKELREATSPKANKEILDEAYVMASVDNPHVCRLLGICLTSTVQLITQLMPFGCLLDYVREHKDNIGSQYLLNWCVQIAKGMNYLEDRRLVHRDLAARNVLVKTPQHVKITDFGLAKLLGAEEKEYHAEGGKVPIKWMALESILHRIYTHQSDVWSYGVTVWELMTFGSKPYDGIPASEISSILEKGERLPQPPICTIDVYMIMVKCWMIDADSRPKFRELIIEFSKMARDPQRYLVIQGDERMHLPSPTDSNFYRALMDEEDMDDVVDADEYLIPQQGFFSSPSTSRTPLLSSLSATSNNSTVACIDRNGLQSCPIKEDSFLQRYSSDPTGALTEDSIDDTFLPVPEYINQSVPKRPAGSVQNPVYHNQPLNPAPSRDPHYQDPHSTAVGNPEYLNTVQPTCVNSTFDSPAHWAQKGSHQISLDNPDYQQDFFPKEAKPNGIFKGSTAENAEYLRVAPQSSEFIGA

Papp A→B [1]: 3.6 ×10⁻⁶ cm/s
inhibition [2]: > 90%
inhibition [3]: 75%
solubility thermodynamic [4]: 2130 µM (≈ 1120 µg/mL)
SMILES: C=CCn1c(=O)c2cnc(Nc3ccc(N4CCN(C)CC4)cc3)nc2n1-c1ccc2c(n1)C(O)(CC)CC2 (racemic)
